# Measured values published in US20010046504A1, “CYCLOPHOSPHAMIDE FILM-COATED TABLETS” (priority 1998, published 2001).
# Format: physicochemical
# Description: Investigations on the Compatibility of Cyclophosphamide with Various Tableting Auxiliaries […] The pressed tablets were stored at 31° C. for 6 months. The decomposition of the active compound was carried out [sic] by means of chloride determination.
substance,measurement,value
Preswollen starch [Auxiliary 9],Stability of cyclophosphamide in the presence of auxiliary (in words),somewhat indifferent
